Measurements taken from patent US7863465B2, “Antifungal agents” (Merck Sharp & Dohme Corp., priority 2006, dated 2011).
Structures can show the parent of a compound that is named as a salt.

These compounds were tested against T1, glucan synthase (GS) prepared from Candida albicans MY1055 (Candida albicans, UniProt O13428) (assay: Glucan synthase inhibition (polymerization assay, 96-well, 3H-UDPG incorporation)). Settings: glucan synthase from C. albicans MY1055.
T1 construct: Extraction of GS activity from membranes was performed at a protein concentration of 5 mg/mL in extraction buffer; endogenous in cells; host or cells: Candida albicans MY1055 (membranes, detergent extract, product entrapment)
Assay type: biochemical
Experimental: The in vitro evaluation of glucan synthase inhibitory activity of compounds was measured in a polymerization assay in 96-well format. Each well contained 100 μL of ^3H-UDPG at 0.5 mM (6000 to 8000 dpm/nmol), 50 mM HEPES pH 7.5 (Sigma), 10% w/v glycerol (Sigma), 1.5 mg/mL bovine serum albumin (Sigma A 9647. Lot 44H0190), 25 mM KF (Fisher), 1 mM EDTA (Gibco Ultrapure), 25 μM GTP-γ-S, enzyme sufficient to give 3 to 6 nmoles incorporation during the 60 min incubation at 22° C., and test compound added from wells in 3-fold serial dilutions in 100% DMSO (1 μL/well). The reaction was stopped by the addition of 100 μL of 20% trichloroacetic acid. Plates were chilled for a minimum of 10 min, and precipitated glucan collected by filtration on GF/C plates (Packard Unifilter®-96), washed with 5 cycles of water (about 1 mL/well each cycle) using a Packard Filtermate Harvester. 40 μL/well scintillation fluid (Packard Ultima Gold TM-XR) was added and the sealed plates counted in a Wallac Beta counter in top-counting mode at an efficiency of approximately 40%.
Stock solutions were stored at 10 mg/mL in DMSO at −20° C. For each new enzyme preparation, the initial titration performed started at 1 mg/mL, which was prepared by making a 10-fold dilution in DMSO (5 μL to 50 μL). 40 μL of this stock was placed in column 12 of a round-bottomed 96-well microtiter plate. 40 μL DMSO was added to columns 1 to 11 in the same row and ten 3-fold serial dilutions performed, by transferring 20 μL from column 12 to column 11 etc., with 4 mixings before each transfer. No test compound was transferred to from column 2 to column 1. Duplicate aliquots of 1 μL of all 12 dilutions were then transferred to the side walls of a 96-well Bioblock 1.1 mL plate (Fisherbrand) to create two rows.
The results were tabulated and a standard plate background was subtracted and the net count transpose-pasted into a Prism file, with final compound concentrations used in ng/mL. Graphs were created in Prism software, using the average of two determinations, and using Prism's curve fitting program (sigmoidal dose response non-linear regression).
Routine analysis was performed with glucan synthase (GS) prepared from Candida albicans MY1055 by the following procedure: MY1055 was grown in 10 liters YPD medium (10 g yeast extract, 20 g tryptone, 20 g glucose per liter) with vigorous shaking at 30° C., to early stationary phase. Cells were harvested by centrifugation, the pellet was washed and frozen at −70° C. until breakage. Thawed pellets were shaken with an equal volume of breakage buffer (50 mM HEPES pH 7.4, 10% glycerol, 1 mM EDTA, 1 mM PMSF, 1 mM DTT) and 4 times their weight of 0.5 mm acid washed glass beads for 2 hours at 4° C. Extent of breakage was assessed visually at 40× magnification. For C. parapsilosis strains, shaking was extended to 3 hours to maximize breakage. After low speed centrifugation to remove cell debris, the supernatant was centrifuged at 100,000×g for 60 min. to separate membranes plus ribosomes from cytoplasmic components. Membranes were further washed two additional times with breakage buffer using the same centrifugation conditions and finally suspended in breakage buffer at 25 to 30 mg/mL protein (Biorad) for storage at −70° C. Extraction of GS activity from membranes was performed at a protein concentration of 5 mg/mL in extraction buffer (50 mM NaPO4 pH 7.5, 0.1 M KCl, 0.1M Na citrate, 20% glycerol, 5 μM GTP-γ-S, 1 mM DTT, 1 mM PMSF, 3 μg/mL pepstatin) plus 0.25% W1 by gentle mixing at 4° C. for 60 min, followed by centrifugation at 100,000×g for 60 min. After centrifugation, clear supernatant was removed from a pellet consisting of a hard layer usually with small amounts of gelatinous unextracted membranes above it. […]

T1 sequence (O13428 1-1897): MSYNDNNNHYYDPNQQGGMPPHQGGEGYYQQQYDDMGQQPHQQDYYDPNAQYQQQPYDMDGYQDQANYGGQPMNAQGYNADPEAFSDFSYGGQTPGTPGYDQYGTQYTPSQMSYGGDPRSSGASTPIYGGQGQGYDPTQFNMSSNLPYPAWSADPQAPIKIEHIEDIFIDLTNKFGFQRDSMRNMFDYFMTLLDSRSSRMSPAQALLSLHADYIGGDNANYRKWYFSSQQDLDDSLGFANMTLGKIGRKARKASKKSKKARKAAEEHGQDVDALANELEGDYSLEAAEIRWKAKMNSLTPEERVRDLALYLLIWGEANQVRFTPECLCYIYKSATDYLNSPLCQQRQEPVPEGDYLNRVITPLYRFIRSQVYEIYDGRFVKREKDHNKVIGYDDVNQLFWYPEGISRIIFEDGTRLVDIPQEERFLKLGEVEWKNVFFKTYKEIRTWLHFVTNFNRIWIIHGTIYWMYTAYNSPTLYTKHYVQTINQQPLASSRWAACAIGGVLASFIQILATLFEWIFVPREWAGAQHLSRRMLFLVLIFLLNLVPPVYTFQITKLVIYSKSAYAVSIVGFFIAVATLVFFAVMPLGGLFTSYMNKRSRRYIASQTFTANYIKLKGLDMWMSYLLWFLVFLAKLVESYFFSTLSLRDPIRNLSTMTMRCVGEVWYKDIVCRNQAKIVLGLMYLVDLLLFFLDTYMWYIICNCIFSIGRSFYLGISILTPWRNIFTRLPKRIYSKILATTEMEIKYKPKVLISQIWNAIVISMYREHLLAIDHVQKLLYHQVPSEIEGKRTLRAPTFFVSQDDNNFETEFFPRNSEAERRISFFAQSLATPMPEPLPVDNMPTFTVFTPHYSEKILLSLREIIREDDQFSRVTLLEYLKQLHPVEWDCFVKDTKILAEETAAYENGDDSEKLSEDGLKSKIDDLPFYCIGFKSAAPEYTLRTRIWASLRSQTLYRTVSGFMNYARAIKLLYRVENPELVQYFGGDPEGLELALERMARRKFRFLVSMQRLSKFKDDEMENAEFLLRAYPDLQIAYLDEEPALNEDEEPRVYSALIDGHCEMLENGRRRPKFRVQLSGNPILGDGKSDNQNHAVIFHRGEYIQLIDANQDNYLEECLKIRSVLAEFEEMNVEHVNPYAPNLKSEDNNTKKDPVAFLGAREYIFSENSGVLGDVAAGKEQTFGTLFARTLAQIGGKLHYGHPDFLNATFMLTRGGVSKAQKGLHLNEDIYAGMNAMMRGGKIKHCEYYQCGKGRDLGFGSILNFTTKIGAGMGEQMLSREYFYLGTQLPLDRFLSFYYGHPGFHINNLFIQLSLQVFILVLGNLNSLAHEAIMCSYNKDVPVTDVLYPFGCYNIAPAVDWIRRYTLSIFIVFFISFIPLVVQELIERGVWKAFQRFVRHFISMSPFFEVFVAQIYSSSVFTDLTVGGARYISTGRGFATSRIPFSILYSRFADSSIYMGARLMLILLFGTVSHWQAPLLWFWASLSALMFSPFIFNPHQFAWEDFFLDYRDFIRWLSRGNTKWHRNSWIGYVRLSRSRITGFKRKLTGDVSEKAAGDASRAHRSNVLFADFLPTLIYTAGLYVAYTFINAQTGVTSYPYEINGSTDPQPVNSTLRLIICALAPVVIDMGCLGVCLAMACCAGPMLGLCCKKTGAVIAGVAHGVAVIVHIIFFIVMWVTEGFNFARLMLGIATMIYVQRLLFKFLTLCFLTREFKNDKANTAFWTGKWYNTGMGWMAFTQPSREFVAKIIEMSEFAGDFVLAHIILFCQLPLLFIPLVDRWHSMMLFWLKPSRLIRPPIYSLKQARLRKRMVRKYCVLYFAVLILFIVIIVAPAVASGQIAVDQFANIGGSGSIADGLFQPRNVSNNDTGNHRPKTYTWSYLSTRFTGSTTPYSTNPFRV
T1 sequence (O42825 whole entry partner): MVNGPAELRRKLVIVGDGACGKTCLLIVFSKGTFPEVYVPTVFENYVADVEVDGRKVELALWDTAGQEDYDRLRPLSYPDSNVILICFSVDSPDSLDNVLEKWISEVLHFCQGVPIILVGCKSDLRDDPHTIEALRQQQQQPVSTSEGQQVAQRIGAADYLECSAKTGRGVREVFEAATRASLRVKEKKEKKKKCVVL

Row | SMILES | IC50
1 | CC(=O)O[C@@H]1C[C@@]23COC[C@](C)([C@@H]2CC[C@H]2C3=CC(=O)[C@@]3(C)[C@H](C(=O)O)[C@@](C)([C@H](C)C(C)C)CC[C@]23C)[C@H]1OC[C@](C)(N)C(C)C [Example 151, (1S,2R,3R,4aR,6aS,7R,8R,10aR,10bR,12aR)-3-acetoxy-2-[[(2R)-2-amino-2,3-dimethylbutyl]oxy]-8-[(1R)-1,2-dimethylpropyl]-1,6a,8,10a-tetramethyl-6-oxo-1,3,4,6,6a,7,8,9,10,10a,10b,11,12,12a-tetradecahydro-2H-1,4a-(methanooxymethano)chrysene-7-carboxylic acid (fumaric acid salt)] | 17.1 nM
2 | CN[C@@](C)(CO[C@H]1[C@H](OC(C)=O)C[C@@]23COC[C@]1(C)[C@@H]2CC[C@H]1C3=CC(=O)[C@@]2(C)[C@H](C(=O)O)[C@@](C)([C@H](C)C(C)C)CC[C@]12C)C(C)C [Example 152, (1S,2R,3R,4aR,6aS,7R,8R,10aR,10bR,12aR)-3-acetoxy-2-[[(2R)-2-methylamino-2,3-dimethylbutyl]oxy]-8-[(1R)-1,2-dimethylpropyl]-1,6a,8,10a-tetramethyl-6-oxo-1,3,4,6,6a,7,8,9,10,10a,10b,11,12,12a-tetradecahydro-2H-1,4a-(methanooxymethano)chrysene-7-carboxylic acid (fumaric acid salt)] | 13.7 nM
3 | CC(=O)O[C@@H]1C[C@@]23COC[C@](C)([C@@H]2CC[C@H]2C3=CC(=O)[C@@]3(C)[C@H](C(=O)O)[C@@](C)([C@H](C)C(C)C)CC[C@]23C)[C@H]1OC[C@@](C)(C(C)C)N(C)C [Example 153, (1S,2R,3R,4aR,6aS,7R,8R,10aR,10bR,12aR)-3-acetoxy-2-[[(2R)-2-dimethylamino-2,3-dimethylbutyl]oxy]-8-[(1R)-1,2-dimethylpropyl]-1,6a,8,10a-tetramethyl-6-oxo-1,3,4,6,6a,7,8,9,10,10a,10b,11,12,12a-tetradecahydro-2H-1,4a-(methanooxymethano)chrysene-7-carboxylic acid (fumaric acid salt)] | 26.8 nM
